Legend:
[1] = Inhibition of bovine heart SQR; parameters: species or system Bos taurus
[2] = Inhibition of rat liver SQR
[3] = Inhibition of porcine heart SQR in SCR complex assessed as reduction in ubiquinol-cytochrome c reductase (complex 3) activity by measuring cytochrome c level using succinate and DCIP substrate by spectrophotometry; parameters: species or system Sus scrofa
[4] = Inhibition of porcine heart SCR using succinate and cytochrome c substrate at 23 degC by spectrophotometry; parameters: species or system Sus scrofa
[5] = Non-competitive inhibition of porcine heart SCR with respect to cytochrome c substrate at 23 degC by double-reciprocal plot; parameters: species or system Sus scrofa
[6] = target: T1, Succinate-ubiquinone oxidoreductase (Sus scrofa, UniProt A5GZW8+D0VWV4); experiment: Inhibition of porcine heart SQR in SCR complex assessed as reduction in ubiquinol-cytochrome c reductase (complex 3) activity by measuring cytochrome c level using succinate and DCIP substrate at 23 degC by spectrophotometry; assay type: protein-complex assay
T1 sequence (A5GZW8 whole entry): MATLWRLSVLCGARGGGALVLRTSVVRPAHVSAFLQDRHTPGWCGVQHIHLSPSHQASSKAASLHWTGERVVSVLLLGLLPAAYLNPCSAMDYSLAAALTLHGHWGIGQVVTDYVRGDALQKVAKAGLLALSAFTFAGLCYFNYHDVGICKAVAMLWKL
T1 sequence (D0VWV4 whole entry): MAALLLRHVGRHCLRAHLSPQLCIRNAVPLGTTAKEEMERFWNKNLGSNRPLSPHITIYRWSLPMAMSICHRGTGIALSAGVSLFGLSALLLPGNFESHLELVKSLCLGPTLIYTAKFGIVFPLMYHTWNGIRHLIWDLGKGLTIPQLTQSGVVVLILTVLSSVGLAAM

[7] = target: T1, Succinate-ubiquinone oxidoreductase; experiment: Non-competitive inhibition of porcine heart SQR in SCR complex with respect to DCIP substrate at 23 degC by double-reciprocal plot; assay type: protein-complex assay
Sus scrofa [8] = species on record: Sus scrofa; experiment: Inhibition of porcine heart electron transport protein complex 3 in SCR complex at 10 uM using DBH2 and cytochrome c substrate by spectrophotometry
Sus scrofa [9] = species on record: Sus scrofa; experiment: Potency index, ratio of Ki for penthiopyrad to Ki for compound against porcine heart SCR
[10] = target: Succinate-ubiquinone oxidoreductase (Sus scrofa) (UniProt A5GZW8+D0VWV4); experiment: Potency index, ratio of Ki for penthiopyrad to Ki for compound against porcine heart SQR in SCR complex; assay type: protein-complex assay

Question: Which results are given for `COc1[nH]c(=O)c(C(=O)[C@@H](C)C[C@H](C)[C@@H](Cl)CCl)c(O)c1OC` [ATPENIN A5]?
Answer: IC50 [1]: 3.6 nM; IC50 [2]: 3.7 nM

Question: For `Cc1ccc(CSc2nc3cc(NC(=O)c4cn(C)nc4C(F)(F)F)ccc3o2)cc1`, which IC50 [3] is on record?
Answer: 269 nM

Question: For `Cn1cc(C(=O)Nc2ccc3oc(SCc4ccc(F)cc4)nc3c2)c(C(F)F)n1`, which IC50 [3] is on record?
Answer: 101 nM

Question: Which IC50 [3] does the source give for `Cn1cc(C(=O)Nc2ccc3oc(SCc4ccc(F)c(F)c4)nc3c2)c(C(F)(F)F)n1` here?
Answer: 130 nM

Question: With `Cn1cc(C(=O)Nc2ccc3oc(SCc4cccc(Cl)c4)nc3c2)c(C(F)F)n1` as the compound, how does the IC50 [3] read?
Answer: 82 nM

Question: Which IC50 [3] does the source give for `Cc1ccc(CSc2nc3cc(NC(=O)c4cn(C)nc4C(F)F)ccc3o2)cc1` here?
Answer: 216 nM

Question: With `Cn1cc(C(=O)Nc2ccc3oc(SCc4cccc(Br)c4)nc3c2)c(C(F)(F)F)n1` as the compound, how does the IC50 [3] read?
Answer: 119 nM

Question: For `Cn1cc(C(=O)Nc2ccc3oc(SCc4ccc(C(F)(F)F)cc4)nc3c2)c(C(F)(F)F)n1`, which IC50 [3] is on record?
Answer: 83 nM

Question: For `Cn1cc(C(=O)Nc2ccc3oc(SCc4ccc(Cl)cc4)nc3c2)c(C(F)F)n1`, which IC50 [3] is on record?
Answer: 57 nM

Question: Which IC50 [3] does the source give for `Cn1cc(C(=O)Nc2ccc3oc(SCc4cccc(F)c4)nc3c2)c(C(F)(F)F)n1` here?
Answer: 418 nM

Question: With `Cn1cc(C(=O)Nc2ccc3oc(SCc4ccc(OC(F)(F)F)cc4)nc3c2)c(C(F)(F)F)n1` as the compound, how does the IC50 [3] read?
Answer: 88 nM

Question: With `CC(C)CC(C)c1sccc1NC(=O)c1cn(C)nc1C(F)(F)F` (configuration not stated) [PENTHIOPYRAD] as the compound, how does the IC50 [3] read?
Answer: 1320 nM

Question: And the IC50 [4]?
Answer: 1320 nM

Question: What about the Ki [5] of the same compound?
Answer: 1390 nM

Question: What about the IC50 [6] of the same compound?
Answer: 527 nM

Question: What about the Ki [7] of the same compound?
Answer: 327 nM

Question: What about the inhibition (Sus scrofa [8]) of the same compound?
Answer: < 10%

Question: For `Cn1cc(C(=O)Nc2ccc3oc(SCc4cccc(Cl)c4)nc3c2)c(C(F)(F)F)n1`, which IC50 [3] is on record?
Answer: 149 nM

Question: For `Cn1cc(C(=O)Nc2ccc3oc(SCc4ccc(C(F)(F)F)cc4)nc3c2)c(C(F)F)n1`, which IC50 [3] is on record?
Answer: 39 nM

Question: With `Cn1cc(C(=O)Nc2ccc3oc(SCc4cccc(Br)c4)nc3c2)c(C(F)F)n1` as the compound, how does the IC50 [3] read?
Answer: 62 nM

Question: With `Cn1cc(C(=O)Nc2ccc3oc(SCc4cccc(F)c4)nc3c2)c(C(F)F)n1` as the compound, how does the IC50 [3] read?
Answer: 244 nM

Question: For `Cn1cc(C(=O)Nc2ccc3oc(SCc4ccc(Cl)cc4)nc3c2)c(C(F)(F)F)n1`, which IC50 [3] is on record?
Answer: 111 nM

Question: For `Cn1cc(C(=O)Nc2ccc3oc(SCc4ccc(F)cc4)nc3c2)c(C(F)(F)F)n1`, which IC50 [3] is on record?
Answer: 210 nM

Question: Which IC50 [3] does the source give for `Cn1cc(C(=O)Nc2ccc3oc(SCc4ccc(OC(F)(F)F)cc4)nc3c2)c(C(F)F)n1` here?
Answer: 38 nM

Question: What about the IC50 [4] of the same compound?
Answer: 38 nM

Question: What about the Ki [5] of the same compound?
Answer: 43 nM

Question: What about the IC50 [6] of the same compound?
Answer: 11 nM

Question: And the Ki [7]?
Answer: 11 nM

Question: And the inhibition (Sus scrofa [8])?
Answer: 13%

Question: And the Ratio Ki (Sus scrofa [9])?
Answer: 30

Question: What about the Ratio Ki [10] of the same compound?
Answer: 30

Question: Which IC50 [3] does the source give for `Cn1cc(C(=O)Nc2ccc3oc(SCc4ccc(F)c(F)c4)nc3c2)c(C(F)F)n1` here?
Answer: 100 nM

Question: With `Cn1cc(C(=O)Nc2ccc3oc(SCc4ccc(C#N)cc4)nc3c2)c(C(F)(F)F)n1` as the compound, how does the IC50 [3] read?
Answer: 562 nM

Question: Which IC50 [3] does the source give for `COc1ccc(CSc2nc3cc(NC(=O)c4cn(C)nc4C(F)(F)F)ccc3o2)cc1` here?
Answer: 284 nM

Question: With `Cn1cc(C(=O)Nc2ccc3oc(SCc4ccc(C#N)cc4)nc3c2)c(C(F)F)n1` as the compound, how does the IC50 [3] read?
Answer: 397 nM

Question: For `COc1ccc(CSc2nc3cc(NC(=O)c4cn(C)nc4C(F)F)ccc3o2)cc1`, which IC50 [3] is on record?
Answer: 208 nM

From ChEMBL document CHEMBL3414432, “Discovery of N-benzoxazol-5-yl-pyrazole-4-carboxamides as nanomolar SQR inhibitors” (Eur J Med Chem, 2015)
